This note sets out measurements from PubChem BioAssay (NCI).

Experiment in all cases: growth of human tumour cells (NCI), 48 h
For assay [1], the system named is 786-0 renal.
The test system of assay [2] is A498 renal.
In assay [3] the test system is CCRF-CEM leukemia.
Assay [4] deals with DU-145 prostate.
In assay [5] the test system is HCT-15 colon.
Assay [6] deals with HOP-62 NSCLC.
In assay [7] the test system is HOP-92 NSCLC.
Assay [8] deals with HS 578T breast.
Assay [9] deals with K-562 leukemia.
Assay [10] deals with MOLT-4 leukemia.
Assay [11] has as its system NCI-H226 lung.
Assay [12] concerns PC-3 prostate.
Assay [13] relates to RXF 393 renal.
The test system of assay [14] is SF-268 CNS.
Assay [15] relates to SF-539 CNS.
Assay [16] deals with SK-OV-3 ovarian.
Assay [17] relates to T-47D breast.
In assay [18] the test system is TK-10 renal.
The test system of assay [19] is UACC-257 melanoma.

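Results reflect a 48-hour exposure of cells in 96-well plates to compound at five concentrations. TGI: total growth inhibition.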

As to `c1cc2nnc1SCCSCCCSCCS2`, the TGI in [1], in assay [2], in [3], in [4], in [5] and in assay [6] was greater than 100 µM each time. The TGI in assay [7], in assay [8], in [9], in [10], in [11] and in assay [12] was greater than 100 µM each time. Further, the TGI in assay [13] is greater than 100 µM; in assay [14], greater than 100 µM; in assay [15], 58.2 µM; in [16], greater than 100 µM; in assay [17] it was greater than 100 µM; in assay [18], greater than 100 µM. This compound also yielded a TGI in [19] greater than 100 µM.
As to `N#CC(C#N)=C(N)/C(C#N)=C/c1ccc(O)c(O)c1`, the TGI in assay [1], in [2], in assay [3], in assay [4], in assay [5] and in assay [6] was greater than 100 µM throughout. Besides, the TGI in assay [7], in assay [8], in assay [9], in [10], in assay [11] and in assay [12] was greater than 100 µM throughout. The TGI in [13], in [14], in assay [15], in assay [16], in assay [17] and in [18] was greater than 100 µM each time. In assay [19], this compound registered a TGI greater than 100 µM.
As to `CCOC(=O)/C=C(/C(=O)OCC)n1cc(C)c(=O)[nH]c1=O`, the TGI in [1] is 8.28 µM; in [2], 26.4 µM; in [3] it was 4.61 µM; in assay [4] it was 29.7 µM; in assay [5] it was 4.92 µM; in [6], 33.2 µM. Besides, the TGI turned out to be 3.72 µM in assay [7]; 46.9 µM in [8]; 4.73 µM in assay [9]; 6.51 µM in assay [10]; 10.7 µM in [11]; 20.6 µM in assay [12]. In addition, the TGI in assay [13] stood at 4.52 µM; in [14], 24.6 µM; in [15], 27.3 µM; in assay [16], 32.4 µM; in assay [17], 17.5 µM; in [18], 5.48 µM. In assay [19], this compound gave a TGI of 26 µM.
As to `O=c1oc2ccccc2c(O)c1Cc1ccccc1Cc1c(O)c2ccccc2oc1=O`, the TGI in assay [1], in assay [2], in assay [3], in assay [4], in assay [5] and in [6] was greater than 100 µM in each case. The TGI in assay [7], in assay [8], in [9], in assay [10], in assay [11] and in assay [12] was greater than 100 µM each time. Also, the TGI in assay [13], in assay [14], in assay [15], in assay [16], in [17] and in assay [18] was greater than 100 µM each time. Besides, the TGI in assay [19] was greater than 100 µM.
As for `Oc1c(O)c(Cc2ccccc2)c(Cc2ccccc2)c(Cc2ccccc2)c1Cc1ccccc1`, the TGI in assay [1], in [2], in assay [3], in [4], in assay [5] and in assay [6] was greater than 10 µM each time. The TGI in [7], in [8], in assay [9], in assay [10], in assay [11] and in assay [12] was greater than 10 µM throughout. In addition, the TGI in assay [13], in assay [14], in [15], in [16], in assay [17] and in assay [18] was greater than 10 µM each time. Also, in assay [19], the TGI was greater than 10 µM.
For the compound `CNC(=O)OCC1=C(COC(=O)NC)CN(c2ccc(OC)cc2)C1`, the TGI in assay [1] is greater than 100 µM; in assay [2], 3.9 µM; in assay [3], greater than 100 µM; in [4] it was greater than 100 µM; in assay [5] it was greater than 100 µM; in assay [6], greater than 100 µM. The TGI was greater than 100 µM in assay [7]; greater than 100 µM in assay [8]; greater than 100 µM in assay [9]; greater than 100 µM in assay [10]; 41.1 µM in [11]; greater than 100 µM in assay [12]. The TGI in [13], in assay [14], in assay [15], in assay [16], in assay [17] and in assay [18] was greater than 100 µM each time. Moreover, in assay [19], the TGI is greater than 100 µM.
In the case of `CN1CCN(c2ccc3nc(-c4ccc5nc(CCCc6ccc(N(CCCl)CCCl)cc6)[nH]c5c4)[nH]c3c2)CC1`, the TGI in assay [1], in assay [2], in assay [3], in assay [4], in assay [5] and in assay [6] was greater than 100 µM in each case. Besides, the TGI in assay [7], in assay [8], in assay [9], in assay [10], in assay [11] and in [12] was greater than 100 µM in each case. The TGI in [13], in assay [14], in assay [15], in assay [16], in [17] and in assay [18] was greater than 100 µM each time. In addition, the TGI in assay [19] was greater than 100 µM.
